Common to all, as to type: in vivo
Experiment [1] deals with APP/PS1 transgenic AD model mice. As to the kind of experiment: Morris water maze test in AD mice. Particulars: 10 mg/kg i.p. once a day for 60 days, space exploration test. The procedure:
APP/PS1 transgenic AD model mice were purchased from Southern Model Biotechnology Co., Ltd., which were 4 months in age, and 24-26 g in weight. […]
A circular pool was designed, which was 1 m in diameter, 50 cm in height, 30 cm deep, and white bottom. […] After the mice found the platform or could not find the platform within 90 seconds (the latency period was recorded as 90 seconds), they were guided to the platform by the experimenter and rested on the platform for 10 seconds before the next trial.
24 h after the end of the positioning navigation test, the platform was removed. Then the mice were put into the water from the third quadrant, and the swimming paths of the mice were recorded within 180 s. The residence time of the mice in the target quadrant (third quadrant) and the number of times they crossed the location of the original platform were recorded to observe the spatial orientation ability of the mice. […]

The test system of a further experiment is OVA. The experiment is described as follows: Immune adjuvant function with OVA immunization (ELISA). The settings on record: values of log2; s.c. 10 μg OVA + 100 μg adjuvant on days 1, 7, 14; sampled day 21; C57BL/6 mice. On the procedure:
Specific pathogen free (SPF)-grade C57BL/6 male mice, aged 7-8 weeks and weighing 20-22 g, were purchased from American Animals Inc. The aluminum adjuvant and OVA were purchased from Invitrogen company.
The mice were divided into 7 groups (10 mice in each group), namely, group A: OVA+cGAMP; group B: OVA+MncGAMP; group C: OVA+complex VIII; group D: OVA+complex IV; group E: OVA+complex VII; group F: OVA+aluminum adjuvant; and group G: OVA.
Each mouse was injected subcutaneously with 10 μg of OVA and 100 μg of aluminum adjuvant or a different species of cGAMP (or the immune agonist complex), and those not injected were negative control groups. Immunization was performed once on days 1, 7, and 14, respectively, and lung lavage fluid was obtained and blood samples taken on day 21. The potency of the immune agonist and the complex as adjuvants to induce nanobody production was determined by ELISA, and the results were shown in Table 7.

In experiment [2] the test system is pro-inflammatory factors IL-1β and TNF-α. The experiment is described as follows: Pro-inflammatory factors in brain tissues of AD mice (ELISA). The settings on record: 10 mg/kg i.p., two months of administration. On the procedure: To explore the effect of the above immune agonists and complexes thereof on neuroinflammation in the brain of AD mice, the content of pro-inflammatory factors in brain tissues of AD mice was determined by ELISA method. The content of pro-inflammatory factors IL-1β and TNF-α in brain tissues of AD mice were measured respectively.
Fresh brain tissues of mice were taken and weighed, and the content of inflammatory factors IL-1β and TNF-α in brain tissues was determined by using the Cloud Clone ELISA kit. […] Therefore, the immune agonist-brain-targeted nanocarrier complexes were able to eliminate the chronic neuroinflammation present in the course of AD in mice.

Consider `Nc1nc(=O)c2ncn(C3OC4COP(=O)(O)OC5C(COP(=O)(O)OC3C4O)OC(n3cnc4c(N)ncnc43)C5O)c2[nH]1` (centres unmarked) [cGAMP, 2′3′-cGAMP], for which the “Percentage of time to cross the third quadrant platform in AD mice (%)” value in experiment [1] stood at 0.55 ± 0.10%. In addition, in the experiment with OVA, the “Alveolar lavage fluid (IgA)” value turned out to be 2.3 ± 0.2 and the “Serum (IgG)” value was determined as 17.5 ± 0.9. In experiment [2], the “IL-1β” value is 46.18 ± 0.09 pg/mg and the “TNF-α” value is listed as 35.52 ± 0.35 pg/mg.
